Columns and labels:
Trametes versicolor = assay: Agar medium colony growth inhibition test on Trametes versicolor, with Colby synergy calculation; type: cell-based; details: single compound, 0.2 ppm, potato dextrose agar, 25° C., seventh day
Experimental: Each of 1% w/v dimethylsulfoxide solution of compound A, cyproconazole (manufactured by Wako Pure Chemical Industries, Ltd.), epoxyconazole (manufactured by Wako Pure Chemical Industries, Ltd.) and tetraconazole (manufactured by Wako Pure Chemical Industries, Ltd.) was prepared. The solutions diluted with dimethylsulfoxide were fully mixed in the sterilized potate dextrose agar medium, and 15 ml of the resultant medium was poured into a petri dish 90 mm in diameter and allowed to stand at room temperature. As a control, the potate dextrose agar medium added with dimethylsulfoxide only was also prepared. After the medium was solidified, the mycelia was scooped with the medium from the colony of Trametes versicolor as being a typical wood-decaying fungi, which had been cultivated in advance, using a cork baller 5 mm in diameter; and inoculated in the center of the test medium. The fungi was cultivated in the petri dish at 25° C., and the diameter of the colony spread from the source of inoculum was measured on the seventh day. The growth inhibition ratio by comparing the diameter of the test colony to that of the control was determined by the above-mentioned formula as an indication of the actual measured growth inhibition ratio. The theoretical efficacy ratio of the mixture of the active ingredients (i.e. theoretical growth inhibition ratio) was determined using the following Colby's formula (R. S. Colby, Weeds 15, 20-22 (1967)) to thereby be compared with the actual-measured efficacy ratio ([…]).
Colby's formula: E=x+y−x·y/100 [Formula 2]
E: theoretical efficacy ratio (theoretical growth inhibition ratio) represented by the ratio (%) to the control when the mixture of active compound B (concentration b) and C (concentration c) was used. x: efficacy ratio (growth inhibition ratio) represented by the ratio (%) to the control when active compound B was used at a concentration of b. y: efficacy ratio (growth inhibition ratio) represented by the ratio (%) to the control when active compound C was used at a concentration of c.

Coniphora puteana = assay: Agar medium colony growth inhibition test on Coniphora puteana; type: cell-based; details: 0.2 ppm in potato dextrose agar, 25° C., colony diameter on the seventh day vs control
Experimental: A predetermined amount of the solutions diluted with dimethylsulfoxide were fully mixed in the sterilized potato dextrose agar medium, and 15 ml of the resultant medium was poured into a petri dish 90 mm in diameter and allowed to stand at room temperature. As a control, the potato dextrose agar medium added with dimethylsulfoxide only was also prepared. […] The fungi was cultivated in the petri dish at 25° C., and the diameter of the colony spread from the source of inoculum was measured on the seventh day. The growth inhibition ratio between the diameter of the test colony and that of the control was determined by the following formula as an indication of the degree of inhibition. Compound A apparently had greater effects on Coniphora puteana compared to the compounds which had been disclosed in the past. Growth inhibition ratio (%)={(diameter of the control colony−diameter of the test colony)/diameter of the control colony}×100 [Formula 1]

SMILES	Degree of inhibition on Coniphora puteana at 0.2 ppm (Coniphora puteana)	also measured
Fc1ccc([C@]2(Cn3cncn3)O[C@H]2c2ccccc2Cl)cc1 (racemic) [Epoxiconazole]		Actual measured growth inhibition ratio (%) (Trametes versicolor): 24%
CC(C)c1cccc(NC(=O)c2ccccc2C(F)(F)F)c1 [Compound A, 3′-isopropyl-2-trifluoromethyl benzoic acid anilide]		Actual measured growth inhibition ratio (%) (Trametes versicolor): 35%; melting point: 98 to 101 °C; inhibition at 0.2 ppm (Coniphora puteana; read-out: Degree of inhibition on Coniphora puteana at 0.2 ppm): ≥ 75%
FC(F)C(F)(F)OCC(Cn1cncn1)c1ccc(Cl)cc1Cl (stereo not shown) [Tetraconazole]		Actual measured growth inhibition ratio (%) (Trametes versicolor): 25%
CC(C)Oc1cccc(NC(=O)c2ccccc2C(F)(F)F)c1 [compound 1, 3′-isopropoxy-2-trifloromethyl benzoic acid anilide]	▴ (inhibition ratio of 25 to 50%)	
Cc1ccccc1C(=O)Nc1cccc(OC(C)C)c1 [compound 2, 3′-isopropoxy-2-methyl benzoic acid anilide]	▴ (inhibition ratio of 25 to 50%)	
Cc1ccccc1C(=O)Nc1cccc(C(C)C)c1 [compound 3, 3′-isopropyl-2-methyl benzoic acid anilide]	▴ (inhibition ratio of 25 to 50%)	
CC(C)c1cccc(NC(=O)c2ccccc2I)c1 [compound 4, 3′-isopropyl-2-iodobenzoic acid anilide]	▴ (inhibition ratio of 25 to 50%)	
CC(C)Oc1cccc(NC(=O)c2ccccc2I)c1 [compound 5, 3′-isopropoxy-2-iodobenzoic acid anilide]	▴ (inhibition ratio of 25 to 50%)	
CC(C)c1cccc(NC(=O)c2ccccc2[N+](=O)[O-])c1 [compound 6, 3′-isopropyl-2-nitrobenzoic acid anilide]	x (inhibition ratio of 25% or less)	
CC(C)c1cccc(NC(=O)c2ccccc2Br)c1 [compound 7, 3′-isopropyl-2-bromobenzoic acid anilide]	▴ (inhibition ratio of 25 to 50%)	
O=C(Nc1ccccc1)c1ccccc1C(F)(F)F [compound 8, 2-trifloromethyl benzoic acid anilide]	x (inhibition ratio of 25% or less)	
CC(C)c1ccccc1NC(=O)c1ccccc1C(F)(F)F [compound 9, 2′-isopropyl-2-trifloromethyl benzoic acid anilide]	x (inhibition ratio of 25% or less)	
CC(C)c1ccc(NC(=O)c2ccccc2C(F)(F)F)cc1 [compound 10, 4′-isopropyl-2-trifloromethyl benzoic acid anilide]	x (inhibition ratio of 25% or less)	
Cc1cccc(NC(=O)c2ccccc2C(F)(F)F)c1 [compound 11, 3′-methyl-2-trifloromethyl benzoic acid anilide]	▴ (inhibition ratio of 25 to 50%)	
CCc1cccc(NC(=O)c2ccccc2C(F)(F)F)c1 [compound 12, 3′-ethyl-2-trifloromethyl benzoic acid anilide]	▴ (inhibition ratio of 25 to 50%)	
O=C(Nc1cccc(C(F)(F)F)c1)c1ccccc1C(F)(F)F [compound 13, 2,3′-trifluoromethyl benzoic acid anilide]	x (inhibition ratio of 25% or less)	
O=C(Nc1cccc(OC(F)(F)F)c1)c1ccccc1C(F)(F)F [compound 14, 3′-trifluoromethoxy-2-trifloromethyl benzoic acid anilide]	x (inhibition ratio of 25% or less)	
O=C(Nc1cccc(F)c1)c1ccccc1C(F)(F)F [compound 15, 3′-fluoro-2-trifloromethyl benzoic acid anilide]	x (inhibition ratio of 25% or less)	
O=C(Nc1cccc(Cl)c1)c1ccccc1C(F)(F)F [compound 16, 3′-chloro-2-trifloromethyl benzoic acid anilide]	x (inhibition ratio of 25% or less)	
O=C(Nc1cccc(Br)c1)c1ccccc1C(F)(F)F [compound 17, 3′-bromo-2-trifloromethyl benzoic acid anilide]	x (inhibition ratio of 25% or less)	
O=C(Nc1cccc(I)c1)c1ccccc1C(F)(F)F [compound 18, 3′-iodo-2-trifloromethyl benzoic acid anilide]	x (inhibition ratio of 25% or less)	
Cc1ccc(C(C)C)cc1NC(=O)c1ccccc1C(F)(F)F [compound 19, 5′-isopropyl-2′-methyl-2-trifluoromethyl benzoic acid anilide]	x (inhibition ratio of 25% or less)	
CC(C1CC1)C(O)(Cn1cncn1)c1ccc(Cl)cc1 (stereo not shown) [cyproconazole]		Actual measured growth inhibition ratio (%) (Trametes versicolor): 33%

Source: patent US20110256238A1, “WOOD PRESERVATIVE AND WOOD PROCESSING METHOD” (SDS BIOTECH K.K., priority 2008, published 2011)
